From patent US10836775B2, “6,6-fused heteroaryl piperidine ether allosteric modulators of the M4 muscarinic acetylcholine receptor” (Merck Sharp & Dohme Corp., priority 2016, dated 2020)

Molecular target: T1, human M4 muscarinic acetylcholine receptor (Homo sapiens, UniProt P08173)
T1 construct: expressed in transfected cells; host or cells: CHO-K1
T1 sequence (P08173 1-479): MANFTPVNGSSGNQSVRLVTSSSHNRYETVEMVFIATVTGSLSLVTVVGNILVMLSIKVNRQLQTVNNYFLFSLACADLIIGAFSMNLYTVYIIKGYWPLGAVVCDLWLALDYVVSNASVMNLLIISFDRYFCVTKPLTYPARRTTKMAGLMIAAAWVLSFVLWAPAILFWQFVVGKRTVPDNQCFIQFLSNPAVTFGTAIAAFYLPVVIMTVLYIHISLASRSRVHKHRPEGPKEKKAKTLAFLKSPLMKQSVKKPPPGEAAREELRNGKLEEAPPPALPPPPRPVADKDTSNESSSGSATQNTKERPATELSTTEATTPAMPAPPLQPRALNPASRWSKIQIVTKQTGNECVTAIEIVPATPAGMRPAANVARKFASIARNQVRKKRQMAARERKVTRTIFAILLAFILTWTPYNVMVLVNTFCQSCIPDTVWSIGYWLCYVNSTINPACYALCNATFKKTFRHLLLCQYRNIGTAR
Assay: human FLIPR-based M4 PAM assay (CHO-K1 cells, human M4 receptor and Gαqi5, calcium dye fluorescence, acetylcholine at 20% of maximum)
Assay type: cell-based
Details: inflection point (IP) of 4 parameter logistic dose response curve; CHO-K1 cells with human M4 receptor and Gαqi5; FLIPR Tetra
Method: In a typical experiment the M4 muscarinic acetylcholine receptor modulating activity of the compounds of the present invention was determined in accordance with the following experimental method. […] On the day of assay, growth medium is removed, the cells are washed 2 times with wash buffer, and cells are incubated in dye loading buffer at 37° C., 5% CO2 for ˜1 hour. […] Next, 10 uL of acetylcholine is added (final concentration calculated so as to achieve 20% of the maximum acetycholine response), and the fluorescence reading is continued for 3.5 min. In some cases, a third addition of acetylcholine (final concentration calculated to achieve 70% of the maximal acetylcholine response) is performed. The resulting dose response curves are fit to a 4 parameter logistic equation and the final result is determined as the inflection point (IP) of the curve
CHO-K1 cells stably transfected with human M4 receptor and chimeric G-protein Gαqi5 are thawed from liquid N2 storage, resuspended in growth medium, plated in black, clear bottom 384 well plates, and incubated 16-20 hours at 37° C., 5% CO2.
On the day of assay, growth medium is removed, the cells are washed 2 times with wash buffer, and cells are incubated in dye loading buffer at 37° C., 5% CO2 for ˜1 h. […] Next, 10 uL of acetylcholine is added (final concentration calculated so as to achieve 20% of the maximum acetycholine response), and the fluorescence reading is continued for 3.5 min. In some cases, a third addition of acetylcholine (final concentration calculated to achieve 70% of the maximal acetylcholine response) is performed.

Structure (SMILES) | EC50 [nM]
Cc1cc2c(=O)[nH]c(=O)[nH]c2nc1N1CCC(OCC2CC2)CC1 [Example 33, 7-(4-(cyclopropyl-methoxy)piperidin-1-yl)-6-methylpyrido[2,3-d]pyrimidine-2,4(1H,3H)-dione] | 52
Cc1cc2c(=O)[nH]c(=O)[nH]c2nc1N1CCC(OCC2CCCCC2)CC1 [Example 34, 7-(4-(cyclohexyl-methoxy)piperidin-1-yl)-6-methylpyrido[2,3-d]pyrimidine-2,4(1H,3H)-dione] | 361
COc1ccc(OC2CCN(c3nc4occc(=O)c4cc3C)CC2)cn1 [Example 35, 7-(4-((6-methoxypyridin-3-yl)oxy)piperidin-1-yl)-6-methyl-4H-pyrano[2,3-b]pyridin-4-one] | 38
Cc1cc2c(=O)[nH]c(=O)[nH]c2nc1N1CCC(OCC(C)C)CC1 [Example 36, 7-(4-isobutoxy-piperidin-1-yl)-6-methylpyrido[2,3-d]pyrimidine-2,4(1H,3H)-dione] | 138
CCc1cc2c(=O)[nH]ncc2nc1N1CCC(Oc2ccc(OC)nc2)CC1 [Example 37, 3-ethyl-2-(4-((6-methoxypyridin-3-yl)oxy)piperidin-1-yl)pyrido[2,3-d]pyridazin-5(6H)-one] | 71
Cc1cc2c(=O)[nH]c(=O)[nH]c2nc1N1CCC(OCC2CCCC2)CC1 [Example 38, 7-(4-(cyclopentyl-methoxy)piperidin-1-yl)-6-methylpyrido[2,3-d]pyrimidine-2,4(1H,3H)-dione] | 112
COCc1nc2nc(N3CCC(Oc4cccc(C#N)c4)CC3)c(C)cc2c(=O)[nH]1 [Example 39, 3-((1-(2-(methoxymethyl)-6-methyl-4-oxo-3,4-dihydropyrido[2,3-d]pyrimidin-7-yl)piperidin-4-yl)oxy)benzonitrile] | 32
COc1ccc(OC2CCN(c3nc4nc(C)n(C)c(=O)c4cc3C)CC2)cn1 [Example 40, 7-(4-((6-methoxypyridin-3-yl)oxy)piperidin-1-yl)-2,3,6-trimethyl-pyrido[2,3-d]pyrimidin-4(3H)-one] | 155
COc1ccc(OC2CCN(c3nc4oc(C)cc(=O)c4cc3C)CC2)cn1 [Example 41, 7-(4-((6-methoxypyridin-3-yl)oxy)piperidin-1-yl)-2,6-dimethyl-4H-pyrano[2,3-b]pyridin-4-one] | 100
COc1ccc(OC2CCN(c3nc4cnn(CCO)c(=O)c4cc3C)CC2)cn1 [Example 42, 6-(2-Hydroxyethyl)-2-(4-((6-methoxypyridin-3-yl)oxy)piperidin-1-yl)-3-methylpyrido[2,3-d]pyridazin-5(6H)-one] | 110
Cc1cc2c(=O)n(CCO)ncc2nc1N1CCC(OCC2(C)CC2)CC1 [Example 43, 6-(2-hydroxyethyl)-3-methyl-2-(4-((1-methylcyclopropyl)methoxy)piperidin-1-yl)pyrido[2,3-d]pyridazin-5(6H)-one] | 133
COc1ccc(OC2CCN(c3nc4ncn(C)c(=O)c4cc3C)CC2)cn1 [Example 44, 7-(4-((6-Methoxypyridin-3-yl)oxy)piperidin-1-yl)-3,6-dimethylpyrido[2,3-d]pyrimidin-4(3H)-one] | 135
Cc1cc2c(=O)n(C)c(C)nc2nc1N1CCC(Oc2cnc3c(c2)COC3)CC1 [Example 45, 7-(4-((5,7-dihydrofuro[3,4-b]pyridin-3-yl)oxy)piperidin-1-yl)-2,3,6-trimethyl-pyrido[2,3-d]pyrimidin-4(3H)-one] | 361
COc1ccc(OC2CCN(c3nc4c(cc3C)CCNC4=O)CC2)cn1 [Example 46, 2-(4-((6-Methoxypyridin-3-yl)oxy)piperidin-1-yl)-3-methyl-6,7-dihydro-1,7-naphthyridin-8(51H)-one] | 587
COc1ccc(OC2CCN(c3nc4[nH]c(=O)oc(=O)c4cc3C)CC2)cn1 [Example 47, 7-(4-((6-Methoxypyridin-3-yl)oxy)piperidin-1-yl)-6-methyl-2H-pyrido[2,3-d][1,3]oxazine-2,4(1H)-dione] | 78
COc1ccc(OC2CCN(c3nc4c(cc3C)CNC(=O)N4)CC2)cn1 [Example 48, 7-(4-((6-Methoxypyridin-3-yl)oxy)piperidin-1-yl)-6-methyl-3,4-dihydropyrido[2,3-d]pyrimidin-2(1H)-one] | 272
COc1ccc(OC2CCN(c3nc4c(cnc(=O)n4C)cc3C)CC2)cn1 [Example 49, 7-(4-((6-Methoxypyridin-3-yl)oxy)piperidin-1-yl)-1,6-dimethylpyrido[2,3-d]pyrimidin-2(1H)-one] | 210
COc1ccc(OC2CCN(c3nc4[nH]c(=N)[nH]c(=O)c4cc3C)CC2)cn1 [Example 50, 2-Imino-7-(4-((6-methoxypyridin-3-yl)oxy)piperidin-1-yl)-6-methyl-2,3-dihydropyrido[2,3-d]pyrimidin-4(1H)-one] | 469
COc1ccc(OC2CCN(c3nc4cnn(CO)c(=O)c4cc3C)CC2)cn1 [Example 51, 6-(Hydroxymethyl)-2-(4-((6-methoxypyridin-3-yl)oxy)piperidin-1-yl)-3-methylpyrido[2,3-d]pyridazin-5(6H)-one] | 46
COc1ccc(OC2CCN(c3nc4oc(=O)[nH]c(=O)c4cc3C)CC2)cn1 [Example 52, 7-(4-((6-Methoxypyridin-3-yl)oxy)piperidin-1-yl)-6-methyl-2H-pyrido[3,2-e][1,3]oxazine-2,4(3H)-dione] | 15
COc1ccc(OC2CCN(c3nc4c(=O)[nH][nH]c(=O)c4cc3C)CC2)cn1 [Example 53, 2-(4-((6-Methoxypyridin-3-yl)oxy)piperidin-1-yl)-3-methyl-6,7-dihydropyrido[2,3-d]pyridazine-5,8-dione] | 260
COc1ccc(OC2CCN(c3nc4ccoc(=O)c4cc3C)CC2)cn1 [Example 54, 2-(4-((6-Methoxypyridin-3-yl)oxy)piperidin-1-yl)-3-methyl-5H-pyrano[4,3-b]pyridin-5-one] | 85
COc1ccc(OC2CCN(c3nc4cc(C)oc(=O)c4cc3C)CC2)cn1 [Example 55, 2-(4-((6-Methoxypyridin-3-yl)oxy)piperidin-1-yl)-3,7-dimethyl-5H-pyrano[4,3-b]pyridin-5-one] | 70
